In this experiment the target is Dual 3',5'-cyclic-AMP and -GMP phosphodiesterase 11A (Homo sapiens) (UniProt Q9HCR9). As to the kind of experiment: Inhibition of recombinant N-terminal GST-tagged human PDE11A4 (1 to 943 residues) expressed in Sf9 cells at 500 nM using cGMP and cAMP as substrates by Ba(OH)2 precipitation method relative to control.

Activity calls are given as the source filed them. The rule behind the calls is not given here.

Dual 3',5'-cyclic-AMP and -GMP phosphodiesterase 11A (Homo sapiens), sequence (Q9HCR9 whole entry, looked up, the tested form may be a part): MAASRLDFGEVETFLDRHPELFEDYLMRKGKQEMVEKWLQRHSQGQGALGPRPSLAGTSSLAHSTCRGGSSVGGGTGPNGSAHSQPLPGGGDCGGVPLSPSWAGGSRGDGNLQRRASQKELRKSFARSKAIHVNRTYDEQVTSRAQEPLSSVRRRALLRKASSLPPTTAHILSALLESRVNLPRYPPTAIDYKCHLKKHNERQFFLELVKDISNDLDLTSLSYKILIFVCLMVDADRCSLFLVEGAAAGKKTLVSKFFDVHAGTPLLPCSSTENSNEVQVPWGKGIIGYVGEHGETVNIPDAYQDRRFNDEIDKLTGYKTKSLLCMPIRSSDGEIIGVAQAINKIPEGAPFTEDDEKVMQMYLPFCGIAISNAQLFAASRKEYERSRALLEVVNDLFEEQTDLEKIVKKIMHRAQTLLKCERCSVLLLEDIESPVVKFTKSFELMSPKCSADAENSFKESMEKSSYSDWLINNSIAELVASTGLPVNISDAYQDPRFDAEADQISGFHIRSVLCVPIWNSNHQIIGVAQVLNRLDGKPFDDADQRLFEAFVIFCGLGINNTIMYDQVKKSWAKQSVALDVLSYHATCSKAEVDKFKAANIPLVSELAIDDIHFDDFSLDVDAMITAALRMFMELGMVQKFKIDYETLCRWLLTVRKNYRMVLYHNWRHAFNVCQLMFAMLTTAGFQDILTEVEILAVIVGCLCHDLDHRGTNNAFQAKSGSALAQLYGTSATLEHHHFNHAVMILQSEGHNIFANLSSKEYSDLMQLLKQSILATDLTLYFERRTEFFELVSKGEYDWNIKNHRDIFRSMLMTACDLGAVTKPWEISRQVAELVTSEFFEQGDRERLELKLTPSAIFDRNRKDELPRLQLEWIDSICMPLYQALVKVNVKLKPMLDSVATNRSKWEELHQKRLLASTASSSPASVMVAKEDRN

In the case of `CCN(CC)C(=O)c1ccnc2c1c(C)nn2-c1ccccc1`, the inhibition entry was “inactive”.

With `Cc1nn(-c2ccccc2)c2nc(-c3cccs3)cc(C(=O)N3CCCC3)c12`, the inhibition amounted to 1%.

For the compound `CCN(CC)C(=O)c1cc(-c2ccnn2C)nc2c1c(C)nn2-c1ccc(Cl)c(F)c1`, the inhibition amounted to 51%.

In general, inhibition refers to the drop in the measured response relative to a control, in per cent.

Source of the values: ChEMBL document CHEMBL6127158, “Novel Aminopyrazole Inhibitors of PDE11A for the Treatment of Alzheimer's Disease and Other Types of Dementia” (ACS Med Chem Lett, 2024).
